{
  "source": "patent US12521335B2",
  "about": "“Cosmetic compositions containing vitamin C compounds and uses thereof” (RoC OPCO LLC, priority 2021, dated 2026)",
  "assay": "DPPH antioxidant assay",
  "assay_type": "biochemical",
  "details": "for DPPH antioxidant activity percent, Avg ± SEM: from 0.1% v/v stock",
  "from_the_text": "The purpose of this study was to evaluate the overall antioxidant capacity of the serum formula of Example 1B and gel-cream formula of Example 1C for their ability to reduce the free radical 2,2-Diphenyl-1-picrylhydrazyl ([…] and Singh (2011). Genesis and development of DPPH method of antioxidant assay. (See J. Food Sci Technol. 2011 August; 48(4): 412-422.) Ascorbic Acid (Vitamin C) was used as positive antioxidant control in the assay. The testing involved the suppression of optical density (OD) at 530 nm to a degree, which is proportional to an effective antioxidant activity. Test and control agents were stored at recommended storage temperature until use. An initial 0.1, 1 or 10% v/v dilution was prepared for each test formula in ultra-pure grade water or […]® 355. Serial 2-fold dilutions were prepared for each material and mixed with DPPH in ethanol solution. All samples were compared to diluent-only treated samples used as negative antioxidant activity. Optical density changes at 530 nm were evaluated 10 minutes after addition of DPPH to each sample. Average absorbance was calculated and plotted for each sample concentration. Effective antioxidant inhibition activity based on the change of absorbance of blank (diluent-only) sample (no material added). […] The DPPH antioxidant assay method was performed to measure antioxidant capacity of test materials. The free radical, 2,2-Diphenyl-1-picrylhydrazyl (DPPH) was obtained from Cayman Chemical Co. (Cat. No. 14805) and a 0.2 mM (0.0788 mg/mL) solution was prepared with 200-proof ethanol (Acros Organics, Cat No. 61509-0020). The assay consisted in the evaluation of the overall antioxidant capacity of test materials ([…] and Singh, 2011) for the ability to reduce DPPH (purple color), a stable free radical to DPPHH (Diphenylpicrylhydrazine; light yellow color). The testing involved the suppression of optical density (OD) at 517-530 nm to a degree which is proportional to an effective antioxidant activity. The antioxidant capacity of each material was compared to ascorbic acid (vitamin C) used as standard control. An initial 0.1, 1 or 10% v/v dilution was prepared for each test formula in ultra-pure grade water or […]® 355. Two-fold serial dilutions were made from the stock solution samples. Negative control wells only diluent was added. The vehicle/diluent used was ultra-pure grade water (Cayman Chemical, Co.; Cat No. 400000) or […] Corp.; Lot No. 170310UT14). Diluents were stored at room temperature and handled by the research scientist. To prepare the serum stock formulation (0.1, 1, 10% v/v), 1:10, 1:100 or 1:1000 dilutions were prepared using a positive displacement pipette. To prepare the 20% Ascorbic Acid and 0.05% stock formulation, a 1-dram glass screw-top vial container was pre-weighed and material added to the container followed by addition of neat vehicle to make a 200 mg/mL or […] solution, respectively. Two-fold serial dilutions were made from the stock solution samples. […] Vials were sealed and formulations were immediately used for antioxidant assays.",
  "key": {"[1]": {"details": "DPPH antioxidant activity near 100%"}},
  "data": [
    {"smiles": "O=C1O[C@H]([C@@H](O)CO)C(O)=C1O", "note": "[20% Ascorbic Acid, Ascorbic Acid]", "values": [
      {"measurement": "DPPH antioxidant activity percent, Avg ± SEM", "setting": "0.001 % v/v", "value": "38 ± 8", "unit": "%"},
      {"measurement": "DPPH antioxidant activity percent, Avg ± SEM", "setting": "0.002 % v/v", "value": "31 ± 11", "unit": "%"},
      {"measurement": "DPPH antioxidant activity percent, Avg ± SEM", "setting": "0.003 % v/v", "value": "50 ± 13", "unit": "%"},
      {"measurement": "DPPH antioxidant activity percent, Avg ± SEM", "setting": "0.006 % v/v", "value": "91 ± 4", "unit": "%"},
      {"measurement": "DPPH antioxidant activity percent, Avg ± SEM", "setting": "0.013 % v/v", "value": "100 ± 0", "unit": "%"},
      {"measurement": "DPPH antioxidant activity percent, Avg ± SEM", "setting": "0.025 % v/v", "value": "100 ± 0", "unit": "%"},
      {"measurement": "DPPH antioxidant activity percent, Avg ± SEM", "setting": "0.050 % v/v", "value": "100 ± 0", "unit": "%"},
      {"measurement": "Maximum effective Antioxidant Activity: Concentration (% v/v)", "setting": "[1]", "value": 0.0125, "unit": "% v/v"},
      {"measurement": "Maximum effective Antioxidant Activity: Dilution Factor", "setting": "[1]", "value": "8,000"}
    ]}
  ]
}
